In patent US20230219921A1, “KCNT1 INHIBITORS AND METHODS OF USE” (Praxis Precision Medicines, Inc., priority 2020, published 2023):

Biological target: T1, KCNT1 (KNa1.1, Slack) (Homo sapiens, UniProt Q5JUK3)
T1 construct: expressed in transfected cells; host or cells: HEK-TREX (tetracycline-inducible HEK cell line)
T1 sequence (Q5JUK3 1-1230): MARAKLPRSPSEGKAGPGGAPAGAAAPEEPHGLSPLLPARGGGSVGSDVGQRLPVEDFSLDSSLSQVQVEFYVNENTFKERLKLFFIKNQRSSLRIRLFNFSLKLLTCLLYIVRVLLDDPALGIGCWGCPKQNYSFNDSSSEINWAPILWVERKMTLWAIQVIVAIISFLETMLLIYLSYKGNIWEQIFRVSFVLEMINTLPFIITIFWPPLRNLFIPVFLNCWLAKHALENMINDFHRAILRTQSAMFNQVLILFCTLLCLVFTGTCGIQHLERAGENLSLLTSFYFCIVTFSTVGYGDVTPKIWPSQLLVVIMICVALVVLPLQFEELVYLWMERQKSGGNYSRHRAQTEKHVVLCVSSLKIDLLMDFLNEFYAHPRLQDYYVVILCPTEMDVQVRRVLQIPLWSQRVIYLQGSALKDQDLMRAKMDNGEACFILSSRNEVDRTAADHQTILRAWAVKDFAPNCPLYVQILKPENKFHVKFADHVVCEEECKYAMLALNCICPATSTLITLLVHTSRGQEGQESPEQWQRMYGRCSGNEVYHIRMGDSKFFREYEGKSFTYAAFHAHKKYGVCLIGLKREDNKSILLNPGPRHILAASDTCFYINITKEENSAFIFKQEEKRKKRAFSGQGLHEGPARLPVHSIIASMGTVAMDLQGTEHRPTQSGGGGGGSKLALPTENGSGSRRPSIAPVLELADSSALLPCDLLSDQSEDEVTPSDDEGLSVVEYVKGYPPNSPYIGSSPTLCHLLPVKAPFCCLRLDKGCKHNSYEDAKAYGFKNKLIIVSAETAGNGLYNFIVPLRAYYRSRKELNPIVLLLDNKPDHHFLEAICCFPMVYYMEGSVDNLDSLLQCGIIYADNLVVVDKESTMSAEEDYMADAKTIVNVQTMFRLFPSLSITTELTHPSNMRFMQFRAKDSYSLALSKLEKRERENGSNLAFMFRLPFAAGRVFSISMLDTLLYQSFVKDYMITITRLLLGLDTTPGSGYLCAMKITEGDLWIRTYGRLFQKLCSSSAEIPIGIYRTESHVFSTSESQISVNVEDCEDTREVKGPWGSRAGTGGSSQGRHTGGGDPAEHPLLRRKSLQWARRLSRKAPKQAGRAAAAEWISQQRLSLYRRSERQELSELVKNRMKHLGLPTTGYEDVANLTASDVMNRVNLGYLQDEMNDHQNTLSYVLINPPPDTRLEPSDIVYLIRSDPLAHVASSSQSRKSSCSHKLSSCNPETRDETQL
Assay: KCNT1 patch clamp assay (SyncroPatch 384PE automated patch clamp)
Type: cell-based
Conditions: tetracycline inducible cell line (HEK-TREX); perforated patch mode; step from -80 mV to 0 mV; room temperature; read-out: KCNT1-WT IC50
Protocol: Inhibition of KCNT1 (KNa1.1, Slack) was evaluated using a tetracycline inducible cell line (HEK-TREX). Currents were recorded using the SyncroPatch 384PE automated, patch clamp system. Pulse generation and data collection were performed with PatchController384 V1.3.0 and DataController384 V1.2.1 (Nanion Technologies). The access resistance and apparent membrane capacitance were estimated using built-in protocols. Current were recorded in perforated patch mode (10 μM escin) from a population of cells. The cells were lifted, triturated, and resuspended at 800,000 cells/ml. The cells were allowed to recover in the cell hotel prior to experimentation. Currents were recorded at room temperature. The external solution contained the following (in mM): NaCl 105, NMDG 40, KCl 4, MgCl2 1, CaCl2 5 and HEPES 10 (pH=7.4, Osmolarity ˜300 mOsm). The extracellular solution was used as the wash, reference and compound delivery solution. The internal solution contained the following (in mM): NaCl 70, KF 70, KCl 10, EGTA 5, HEPES 5 and Escin 0.01 (pH=7.2, Osmolarity ˜295 mOsm). Escin is made at a 5 mM stock in water, aliquoted, and stored at −20° C. The compound plate was created at 2× concentrated in the extracellular solution. The compound was diluted to 1:2 when added to the recording well. The amount of DMSO in the extracellular solution was held constant at the level used for the highest tested concentration. A holding potential of −80 mV with a 100 ms step to 0 mV was used. Mean current was measured during the step to 0 mV. […] The average mean current from 3 sweeps was calculated and the % inhibition of each compound was calculated. The % Inhibition as a function of the compound concentration was fit with a Hill equation to derive IC50, slope, min and max parameters. If KCNT1 inhibition was less than 50% at the highest tested concentration or if an IC50 could not be calculated, then a percent inhibition was reported in place of the IC50.
In this table, “A” indicates IC50 of less than or equal to 1 μM; “B” indicates inhibition of between 1 μM to 20 μM; and “C” indicates inhibition of greater than or equal to 20 μM.

Row | SMILES | IC50
1 | CNS(=O)(=O)c1ccc(C(=O)NCc2ccc(C(F)(F)F)cc2C)s1 [Compound 45, N-(2-methyl-4-(trifluoromethyl)benzyl)-5-(N-methylsulfamoyl)thiophene-2-carboxamide] | ≤ 1000 nM
2 | CNS(=O)(=O)c1ccc(C(=O)NCc2ccc(OC(C)C)cc2)s1 [Compound 27, N-(4-isopropoxybenzyl)-5-(N-methylsulfamoyl)thiophene-2-carboxamide] | ≥ 20000 nM
3 | CNS(=O)(=O)c1ccc(C(=O)NCc2cccc(Cl)c2)s1 [Compound 18, N-(3-chlorobenzyl)-5-(N-methylsulfamoyl)thiophene-2-carboxamide] | ≤ 1000 nM
4 | CNS(=O)(=O)c1ccc(C(=O)NCc2ccc(Cl)c(F)c2)s1 [Compound 20, N-(4-chloro-3-fluorobenzyl)-5-(N-methylsulfamoyl)thiophene-2-carboxamide] | ≤ 1000 nM
5 | CCS(=O)(=O)c1ccc(C(=O)NCc2ccc(Cl)cc2Cl)s1 [Compound 16, N-(2,4-dichlorobenzyl)-5-(ethylsulfonyl)thiophene-2-carboxamide] | ≤ 1000 nM
6 | CNS(=O)(=O)c1ccc(C(=O)NCc2ccc(Cl)cc2Br)s1 [Compound 11, N-(2-bromo-4-chlorobenzyl)-5-(N-methylsulfamoyl)thiophene-2-carboxamide] | ≤ 1000 nM
7 | CS(=O)(=O)c1ccc(C(=O)NCc2ccc(C(F)(F)F)cc2)s1 [Compound 33, 5-(methylsulfonyl)-N-(4-(trifluoromethyl)benzyl)thiophene-2-carboxamide] | ≤ 1000 nM
8 | CC(C)Nc1ccc(CNC(=O)c2ccc(S(C)(=O)=O)s2)cc1 [Compound 41, N-(4-(isopropylamino)benzyl)-5-(methylsulfonyl)thiophene-2-carboxamide] | ≥ 20000 nM
9 | CNS(=O)(=O)c1ccc(C(=O)NCc2ccc(Cl)cc2C(F)(F)F)s1 [Compound 8, N-(4-chloro-2-(trifluoromethyl)benzyl)-5-(N-methylsulfamoyl)thiophene-2-carboxamide] | ≤ 1000 nM
10 | CC(C)(C#N)c1ccc(CNC(=O)c2ccc(S(C)(=O)=O)s2)cc1 [Compound 39, N-(4-(2-cyanopropan-2-yl)benzyl)-5-(methylsulfonyl)thiophene-2-carboxamide] | 1000 to 20000 nM
11 | CS(=O)(=O)c1ccc(C(=O)NCc2ccc(C(F)(F)F)cn2)s1 [Compound 48, 5-(methylsulfonyl)-N-((5-(trifluoromethyl)pyridin-2-yl)methyl)thiophene-2-carboxamide] | 1000 to 20000 nM
12 | CNS(=O)(=O)c1ccc(C(=O)NCc2ccc(Cl)cc2)s1 [Compound 7, N-(4-chlorobenzyl)-5-(N-methylsulfamoyl)thiophene-2-carboxamide] | ≤ 1000 nM
13 | CNS(=O)(=O)c1ccc(C(=O)NCc2ccc(C(C)C)cc2)s1 [Compound 19, N-(4-isopropylbenzyl)-5-(N-methylsulfamoyl)thiophene-2-carboxamide] | ≤ 1000 nM
14 | CC(C)Oc1ccc(CNC(=O)c2ccc(S(C)(=O)=O)s2)cc1 [Compound 25, N-(4-isopropoxybenzyl)-5-(methylsulfonyl)thiophene-2-carboxamide] | ≥ 20000 nM
15 | CS(=O)(=O)c1ccc(C(=O)NCc2ccc(C3(C(F)(F)F)CC3)cc2)s1 [Compound 37, 5-(methylsulfonyl)-N-(4-(1-(trifluoromethyl)cyclopropyl)benzyl)thiophene-2-carboxamide] | ≤ 1000 nM
16 | CNS(=O)(=O)c1ccc(C(=O)NCc2ccc(Cl)cc2Cl)s1 [Compound 3, N-(2,4-dichlorobenzyl)-5-(N-methylsulfamoyl)thiophene-2-carboxamide] | ≤ 1000 nM
17 | CNS(=O)(=O)c1ccc(C(=O)NCc2ccc(C3(C(F)(F)F)CC3)cc2)s1 [Compound 36, 5-(N-methylsulfamoyl)-N-(4-(1-(trifluoromethyl)cyclopropyl)benzyl)thiophene-2-carboxamide] | ≤ 1000 nM
18 | CNS(=O)(=O)c1ccc(C(=O)NCc2ccc(C)cc2)s1 [Compound 22, N-(4-methylbenzyl)-5-(N-methylsulfamoyl)thiophene-2-carboxamide] | ≤ 1000 nM
19 | CC(C)(C)c1ccc(CNC(=O)c2ccc(S(C)(=O)=O)s2)cc1 [Compound 32, N-(4-(tert-butyl)benzyl)-5-(methylsulfonyl)thiophene-2-carboxamide] | ≤ 1000 nM
20 | CNS(=O)(=O)c1ccc(C(=O)NCc2ccc(C(F)(F)F)cc2)s1 [Compound 29, 5-(N-methylsulfamoyl)-N-(4-(trifluoromethyl)benzyl)thiophene-2-carboxamide] | ≤ 1000 nM
21 | CS(=O)(=O)c1ccc(C(=O)NCc2ccc(N3CCCC3)cc2)s1 [Compound 23, 5-(methylsulfonyl)-N-(4-(pyrrolidin-1-yl)benzyl)thiophene-2-carboxamide] | ≥ 20000 nM
22 | CNS(=O)(=O)c1ccc(C(=O)NCc2ccc(Br)cc2)s1 [Compound 21, N-(4-bromobenzyl)-5-(N-methylsulfamoyl)thiophene-2-carboxamide] | ≤ 1000 nM
23 | CNS(=O)(=O)c1ccc(C(=O)NCc2ccc(OCC(F)(F)F)cc2)s1 [Compound 35, 5-(N-methylsulfamoyl)-N-(4-(2,2,2-trifluoroethoxy)benzyl)thiophene-2-carboxamide] | 1000 to 20000 nM
24 | CNS(=O)(=O)c1ccc(C(=O)NCc2ccc(Cl)cc2O)s1 [Compound 14, N-(4-chloro-2-hydroxybenzyl)-5-(N-methylsulfamoyl)thiophene-2-carboxamide] | ≤ 1000 nM
25 | CS(=O)(=O)c1ccc(C(=O)NCc2ccc(C3CC3)cc2)s1 [Compound 31, N-(4-cyclopropylbenzyl)-5-(methylsulfonyl)thiophene-2-carboxamide] | ≤ 1000 nM
